The record followed here is patent US5407940A, “New ellipticine compounds” (priority 1992, dated 1995).

pIC50: −log10 of the molar value.

Data set [1] has as its system L1210. The data set can be described thus: Cytotoxicity, line L1210 (Microculture Tetrazolium Assay). In kind it is cell-based, murine. The settings on record: for pIC50: Mus musculus, L1210, 48 h, 2 days incubation, read-out: Cytotoxicity IC50, line L1210; for times more cytotoxic than adriamycin / times more cytotoxic than elliptinium acetate: L1210. An excerpt: (§1) The cells are distributed on microplates and exposed to the cytotoxic compounds.

The test system of data set [2] is S1/tMDR. As to conditions: for resistance factor: S1/tMDR vs S1.
Data set [3] has as its system S1. The data set can be described thus: Cytotoxicity, sensitive line S1. In kind it is cell-based. The settings on record: Homo sapiens, 96 h; 4 days incubation; read-out: Cytotoxicity IC50, sensitive S1.
Description: as §1

The test system of data set [4] is KB-3-1. The data set can be described thus: Cytotoxicity, sensitive line KB-3-1. It is filed as cell-based. The settings on record: Homo sapiens, KB 3-1, 96 h; 4 days incubation; read-out: Cytotoxicity IC50, sensitive KB-3-1.
Description: as §1

For data set [5], the system named is P388/VCR-20. The experiment in a line: cells. The settings on record: Mus musculus, P388, 48 h, read-out: Cytotoxicity IC50, resistant P388/VCR-20.
The subject of data set [6] is colon 38. The experiment in a line: Anti-tumour activity against colon 38. In kind it is in vivo, female B6D2F1 mice. As to conditions: for median T/C (tumour volume): d2 and d9, d25. The method, then: Colon 38 (supplied by NCI, Frederick, USA) was inserted in the form of fragments by the subcutaneous route into female B6D2F1 mice. The compounds were administered by the i.v. route on d2 and d9 and the anti-tumour activity was determined on […] by measuring the tumour volume (T/C volume, %).

The test system of data set [7] is leukaemia P388. The data set can be described thus: Anti-tumour activity against leukaemia P388 in vivo. The settings on record: for Survivors on d60/total no. of mice / T/C: intraperitoneal, day 1.
The subject of data set [8] is KB-A1. The data set can be described thus: cells. As to conditions: Homo sapiens, KB-A1, 96 h, read-out: Cytotoxicity IC50, resistant KB-A1.
The test system of data set [9] is KB-A1. As to conditions: KB-A1 vs KB-3-1.
The subject of data set [10] is S1/tMDR. The data set can be described thus: cells. The settings on record: Homo sapiens, 96 h, read-out: Cytotoxicity IC50, resistant S1/tMDR.
The subject of data set [11] is P388. The data set can be described thus: Cytotoxicity, sensitive line P388 (Microculture Tetrazolium Assay). It is filed as cell-based, murine. As to conditions: Mus musculus, P388, 48 h; 2 days incubation; read-out: Cytotoxicity IC50, sensitive P388.
Description: as §1

The test system of data set [12] is P388/VCR-20. The settings on record: for resistance factor: P388/VCR-20 vs P388.

The term T/C denotes the result in the treated group divided by that in the control group, in per cent.

Regarding `COc1ccc2c(c1)c1cc3c(C(=O)NCCN(C)C)nccc3c(C)c1n2C` [Example 3, 1-(N,N-Dimethylaminoethylaminocarbonyl)-5,6-dimethyl-9-methoxy-6H-pyrido[4,3-b]carbazole], in data set [1], the pIC50 was 6.24.
With `Cc1c2ccnc(C(=O)NCCN(C)C)c2cc2c1[nH]c1ccc(O)cc12` [Example 6, 1-(N,N-Dimethylaminoethylaminocarbonyl)-5-methyl-9-hydroxy-6H-pyrido[4,3-b]carbazole], the results for the resistance factor in [2], in data set [9] and in [12] were 0,7, 37 and 0,5, respectively. Moreover, in [2] (vs S1), the “sensitivity of resistant line S1/tMDR relative to corresponding sensitive line” value was “more sensitive”. The pIC50 in data set [3] was 7.38; in [4] it was 7.70; in [1], 8.51; in data set [5], 8.00; in data set [8], 6.13; in data set [10] it was 7.54. Further, the pIC50 in data set [11] is 7.72. In addition, in data set [1], the “times more cytotoxic than adriamycin” value is given as “approximately 9 times”. For the same molecule, the “times more cytotoxic than elliptinium acetate” value in data set [1] is recorded as about 46 times. The “median T/C (tumour volume)” value in data set [6] (10 mg/kg, i.v.) was determined as 35%; in data set [6] (20 mg/kg, i.v.) it was 22%; in data set [6] (30 mg/kg, i.v.), 0%. Further, the “Survivors on d60/total no. of mice” value in [7] (5 mg/kg) was 4/10; in [7] (10 mg/kg), 3/10; in data set [7] (20 mg/kg), 5/10; in [7] (30 mg/kg), 7/10. In addition, the T/C is recorded as 280% in [7] (5 mg/kg), 233% in data set [7] (10 mg/kg), over 600% in [7] (20 mg/kg) and over 600% in data set [7] (30 mg/kg). For the same molecule, the “long-term survivors over all doses employed” value in [7] (all doses employed) is on record as “all the doses employed giving long-term survivors”. Moreover, the “sensitivity of resistant line P388/VCR-20 relative to corresponding sensitive line” value in data set [12] (vs P388) was “more sensitive”.
With `O=c1[nH]cc(F)c(=O)[nH]1` [Example 5-Fu, 5-fluorouracyle, reference compound], the “median T/C (tumour volume)” value in [6] (80 mg/kg, i.v.) was 0%.
`Cc1c2ccnc(C(=O)NCCCN(C)C)c2cc2c3cc(O)ccc3n(C)c12` [Example 2, 1-(N,N-Dimethylaminopropylaminocarbonyl)-5,6-dimethyl-9-hydroxy-6H-pyrido[4,3-b]carbazole]: the resistance factor is listed as 0,7 in data set [2], 64 in data set [9] and 3,4 in data set [12]. Besides, the pIC50 was 7.24 in [3]; 7.72 in data set [4]; 8.37 in [1]; 7.42 in data set [5]; 5.91 in [8]; 7.42 in data set [10]. Also, in [11], the pIC50 was 7.96. Also, in data set [1], the “times more cytotoxic than adriamycin” value is “approximately 9 times”. For the same molecule, in data set [1], the “times more cytotoxic than elliptinium acetate” value was about 46 times. Besides, the “T/C” value is 0% in [6] (20 mg/kg and above, i.v.); 177% in data set [7] (5 mg/kg); 190% in [7] (10 mg/kg); 250% in data set [7] (20 mg/kg); 204% in [7] (30 mg/kg); 219% in data set [7] (40 mg/kg). Moreover, the T/C was found to be 222% in data set [7] (50 mg/kg) and 248% in [7] (60 mg/kg). Besides, in [6] (20 mg/kg and above, i.v.), the “activity against that solid tumour (in words)” value was “very active”. In addition, the “median T/C (tumour volume)” value was 0% in data set [6] (20 mg/kg, i.v.); 0% in data set [6] (40 mg/kg, i.v.); 0% in data set [6] (60 mg/kg, i.v.). The “activity relative to 5-fluorouracyle” value in [6] (5-Fu at 80 mg/kg) is “as active as”. Besides, the “Survivors on d60/total no. of mice” value in data set [7] (5 mg/kg) is on record as 0/10; in [7] (10 mg/kg) it was 0/10; in [7] (20 mg/kg) it was 3/10; in [7] (30 mg/kg), 1/10; in data set [7] (40 mg/kg), 2/10; in data set [7] (50 mg/kg), 3/10. Moreover, the “Survivors on d60/total no. of mice” value in data set [7] (60 mg/kg) is 3/10.
As for `Cc1c2ccnc(C(=O)NCCCCN)c2cc2c3cc(O)ccc3n(C)c12` [Example 12, 1-[(4-Aminobutyl)aminocarbonyl]-5,6-dimethyl-9-hydroxy-6H-pyrido[4,3-b]carbazole], in data set [1], the pIC50 was 6.35.
Same read-out and setting: the same measure for `Cc1c2ccnc(C(=O)NCCN3CCCC3)c2cc2c3cc(O)ccc3n(C)c12` [Example 13, 1-[N-(2-Pyrrolidin-1-ylethyl)aminocarbonyl]-5,6-dimethyl-9-hydroxy-6H-pyrido[4,3-b]carbazole]: 7.88.
The same measure, in the same setting: next, `COc1ccc2[nH]c3c(C)c4ccnc(C(=O)NCCCN(C)C)c4cc3c2c1` [Example 5, 1-(N,N-Dimethylaminopropylaminocarbonyl) -5-methyl-9-methoxy-6H-pyrido[4,3-b]carbazole]: 5.83.
As for `Cc1c2ccnc(C(=O)NCCCN(C)C)c2cc2c1[nH]c1ccc(O)cc12` [Example 7, 1-(N,N-Dimethylaminopropylaminocarbonyl)-5-methyl-9-hydroxy-6H-pyrido[4,3-b]carbazole], the pIC50 in [1] is 7.39.
For `Cc1c2ccnc(C(=O)NCCNCCO)c2cc2c3cc(O)ccc3n(C)c12` [Example 11, 1-{2-[(2-Hydroxyethyl)amino]ethylaminocarbonyl}-5,6-dimethyl-9-hydroxy-6H-pyrido [4,3-b]carbazole], the pIC50 in data set [1] was 7.53.
The same measure, in the same setting: next, `COc1ccc2[nH]c3c(C)c4ccnc(C(=O)NCCN5CCCC5)c4cc3c2c1` [Example 9, 1-[2-(Pyrrolidin-1-yl)ethylaminocarbonyl]-5-methyl-9-methoxy-6H-pyrido[4,3-b]carbazole]: 5.83.
Take `Cc1c2ccnc(C(=O)NCCCN3CCOCC3)c2cc2c3cc(O)ccc3n(C)c12` [Example 14, 1-[N-(3-Morpholinopropyl)aminocarbonyl]-5,6-dimethyl-9-hydroxy-6H-pyrido[4,3-b]carbazole]: the pIC50 in data set [1] was 7.98.
The same measure, in the same setting: next, `COc1ccc2[nH]c3c(C)c4ccnc(C(=O)NCCN(C)C)c4cc3c2c1` [Example 8, 1-(N,N-Dimethylaminoethylaminocarbonyl)-5-methyl-9-methoxy-6H-pyrido[4,3-b]carbazole]: 6.31; `COc1ccc2c(c1)c1cc3c(C(=O)NCCCN(C)C)nccc3c(C)c1n2C` [Example 4, 1-(N,N-Dimethylaminopropylaminocarbonyl)-5,6-dimethyl-9-methoxy-6H-pyrido[4,3-b]carbazole]: 6.06.
